Measurements taken from patent publication US20230181482A1, “LIPIDS FOR DELIVERY OF NUCLEIC ACID SEGMENTS” (AstraZeneca AB, priority 2021, published 2023).

Key:
[1] = mRNA encapsulation efficiency of LNP formulations (Quant-it Ribogreen assay with Triton-X100); assay type: physicochemical; conditions: N/P ratio 3:1, DMPE-PEG2000
Experimental: (§1) A solution of eGFP mRNA (purchased from TriLink Biotechnologies) in citrate buffer was prepared by mixing mRNA dissolved in MilliQ-water, 100 mM citrate buffer (pH 3) and MilliQ-water to give a solution of 50 mM citrate. Lipid solution in ethanol (99.5%) was prepared with four different lipid components: ionizable lipid (see Table 1); cholesterol (Sigma-Aldrich); DSPC (distearoyl phosphatidyl choline, Avanti Polar Lipids Inc); and a polymer-conjugated lipid (see Table 1). The ratio of lipids in all experiments was ionizable lipid/cholesterol/DSPC/polymer-conjugated lipid (50/38.5/10/1.5 mol %). The total concentration of lipids in all experiments was 12.5 mM.
(§2) The mRNA and lipid solutions were mixed in a NanoAssemblr (Precision Nanosystems, Vancouver, BC, Canada) microfluidic mixing system at a mixing ratio of Aq:EtOH=3:1 and a constant flow rate of 12 mL/min. The mRNA in citrate buffer solution was prepared such that, at the time of mixing the ratio between the nitrogen atoms on the ionizable lipid and phosphorus atoms (N/P ratio) on the mRNA chain was either 3:1 or 6:1 (see Table 1).
The final mRNA concentration and encapsulation efficiency percentage (% EE) was measured by Quant-it Ribogreen Assay Kit (ThermoFischer Scientific Inc.) using Triton-X100 to disrupt the LNPs. The mRNA encapsulation efficiency was determined according to the following equation: […]

[2] = LNP particle size by dynamic light scattering (Zetasizer Nano ZS); assay type: physicochemical; conditions: N/P ratio 3:1, DMPE-PEG2000
Experimental: as §1, §2
The first 0.2-0.35 mL and the last 0.05-0.1 mL of the LNP suspension prepared were discarded while the rest of the volume was collected as the sample fraction. The size of the mRNA lipid nanoparticles was determined by dynamic light scattering measurements using a Zetasizer Nano ZS from Malvern Instruments Ltd, giving directly the z-average particle diameter. The number-weighted particle size distributions and averages were calculated using a particle refractive index of 1.45.

Female BALB/c mice = assay: eGFP expression in the liver at 24 hours after intravenous administration of LNP formulations to mouse (ELISA); assay type: in vivo; conditions: LNP N/P 3:1, DMPE-PEG2000
Description: Female BALB/c mice were purchased (SPF (Beijing) Laboratory Animal Technology Co. Ltd.) and on arrival were caged in groups of 4 on corncob bedding, with normal diet and were provided tap drinking water ad libitum that was purified and autoclaved before being offered to the animal. The environment was maintained at a target temperature of […] and relative humidity of 40-80%, with a 12-hour light/dark cycle. Animals were acclimatised to the housing conditions for at least 7 days prior to any experimental procedures and were approximately 6-8 weeks of age at the start of dosing
Animals were assigned to respective groups such that the mean body weights for each treatment groups will be equal. N=4 for each treatment group.
Formulations 1, 3, 4, 5, and 6 from Example 58 were each dosed intravenously: Each mouse was removed from its cage and restrained, and then dosed with a slow IV bolus of a formulation in the lateral tail vein at a dose […] of 0.3 mg/kg.
All animals were sacrificed 24 hours after dosing and flowing blood sampling the liver for the animals dosed by the IV route and the liver and muscle at the dose site for the IM dosed animals were harvested for eGFP analysis by ELISA.
Additional LNP formulations were prepared according to the procedures described in Example 46. These formulations were tested using the same protocol as described herein. The results of eGFP expression in the liver at 24 hours after intravenous administration of the formulations were summarized in Tables 3, 4, 5 and 6 below.

| % EE ([1]; Table 4) | <d>N (nm) ([2]; Table 4) | <d>Z (nm) ([2]; Table 4) | % EE ([1]; Table 5) | <d>N (nm) ([2]; Table 5) | <d>Z (nm) ([2]; Table 5) | SMILES | Liver eGFP protein (ng/g tissue) (Female BALB/c mice; Table 4, 0.3 mg/kg) | Liver eGFP protein (ng/g tissue) (Female BALB/c mice; Table 5, 0.3 mg/kg) |
| --- | --- | --- | --- | --- | --- | --- | --- | --- |
| 96% | 45 nm | 62 nm | – | – | – | CCCCCCCCC(CCCCCCCC)OC(=O)CCCCCCC(CCCCCCC(=O)OC(CCCCCCCC)CCCCCCCC)NC1CC2(COC2)C1 [Compound 23, di(heptadecan-9-yl) 8-((2-oxaspiro[3.3]heptan-6-yl)amino)pentadecanedioate] | 2318.8 ng/g tissue | – |
| 94% | 52 nm | 71 nm | – | – | – | CCCCCCCCCOC(=O)CCCCCCC(CCCCCCC(=O)OC(CCCCCCCC)CCCCCCCC)NC1CC2(COC2)C1 (stereo not drawn) [Compound 24, 1-(heptadecan-9-yl) 15-nonyl 8-((2-oxaspiro[3.3]heptan-6-yl)amino)pentadecanedioate] | 748.9 ng/g tissue | – |
| 94% | 50 nm | 69 nm | – | – | – | CCCCCCCCC(C)OC(=O)CCCCCCC(CCCCCCC(=O)OC(CCCCCCCC)CCCCCCCC)NC1CC2(COC2)C1 (stereo not drawn) [Compound 25, 1-(decan-2-yl) 15-(heptadecan-9-yl) 8-((2-oxaspiro[3.3]heptan-6-yl)amino)pentadecanedioate] | 15961.7 ng/g tissue | – |
| 94% | 50 nm | 75 nm | – | – | – | CCCCCCCCC(CCCCCCCC)OC(=O)CCCCCCC(CCCCCCC(=O)OCCCCCCCC(C)C)NC1CC2(COC2)C1 (stereo not drawn) [Compound 26, 1-(heptadecan-9-yl) 15-(8-methylnonyl) 8-((2-oxaspiro[3.3]heptan-6-yl)amino)pentadecanedioate] | 824.8 ng/g tissue | – |
| 97% | 55 nm | 98 nm | – | – | – | CCCCCCCCC(CCCCCCCC)OC(=O)CCCCCCC(CCCCCCC(=O)OCCC(CCCCCCC)CCCCCCC)NC1CC2(COC2)C1 (stereo not drawn) [Compound 27, 1-(heptadecan-9-yl) 15-(3-heptyldecyl) 8-((2-oxaspiro[3.3]heptan-6-yl)amino)pentadecanedioate] | 4982.6 ng/g tissue | – |
| 97% | 80 nm | 129 nm | – | – | – | CCCCCCCC(CCCCCCC)COC(=O)CCCCCCC(CCCCCCC(=O)OCC(CCCCCCC)CCCCCCC)NC1CC2(COC2)C1 [Compound 28, Bis(2-heptylnonyl) 8-((2-oxaspiro[3.3]heptan-6-yl)amino)pentadecanedioate] | 9557.1 ng/g tissue | – |
| 90% | 51 nm | 71 nm | – | – | – | CCCCCCCCC(C)OC(=O)CCCCCCC(CCCCCCC(=O)OCC(CCCCCCC)CCCCCCC)NC1CC2(COC2)C1 (stereo not drawn) [Compound 29, 1-(decan-2-yl) 15-(2-heptylnonyl) 8-((2-oxaspiro[3.3]heptan-6-yl)amino)pentadecanedioate] | 1288.4 ng/g tissue | – |
| 94% | 47 nm | 62 nm | – | – | – | CCCCCCCCC(CCCCCCCC)OC(=O)CCCCCCCC(CCCCCCCC(=O)OC(CCCCCCCC)CCCCCCCC)NC1CC2(COC2)C1 [Compound 31, Di(heptadecan-9-yl) 9-((2-oxaspiro[3.3]heptan-6-yl)amino)heptadecanedioate] | 1319.3 ng/g tissue | – |
| 94% | 56 nm | 72 nm | – | – | – | CCCCCCCCC(C)OC(=O)CCCCCCCC(CCCCCCCC(=O)OC(CCCCCCCC)CCCCCCCC)NC1CC2(COC2)C1 (stereo not drawn) [Compound 32, 1-(decan-2-yl) 17-(heptadecan-9-yl) 9-((2-oxaspiro[3.3]heptan-6-yl)amino)heptadecanedioate] | 16518.2 ng/g tissue | – |
| 97% | 53 nm | 67 nm | – | – | – | CCCCCCCCC(CCCCCCCC)OC(=O)CCCCCCCC(CCCCCCCC(=O)OCC(CCCCCCC)CCCCCCC)NC1CC2(COC2)C1 (stereo not drawn) [Compound 33, 1-(heptadecan-9-yl) 17-(2-heptylnonyl) 9-((2-oxaspiro[3.3]heptan-6-yl)amino)heptadecanedioate] | 1056.2 ng/g tissue | – |
| 96% | 51 nm | 68 nm | – | – | – | CCCCCCC(CCCCCC)COC(=O)CCCCCCCC(CCCCCCCC(=O)OCC(CCCCCC)CCCCCC)NC1CC2(COC2)C1 [Compound 34, Bis(2-hexyloctyl) 9-((2-oxaspiro[3.3]heptan-6-yl)amino)heptadecanedioate] | 11015.4 ng/g tissue | – |
| – | – | – | 95% | 59 nm | 77 nm | CCCCCCCCC(C)OC(=O)CCCCCCCC(CCCCCCCC(=O)OC(CCCCCCCC)CCCCCCCC)NCC1CCOCC1 (stereo not drawn) [Compound 35, 1-(decan-2-yl) 17-(heptadecan-9-yl) 9-(((tetrahydro-2H-pyran-4-yl)methyl)amino)heptadecanedioate] | – | 5974.6 ng/g tissue |
| – | – | – | 96% | 57 nm | 73 nm | CCCCCCCCC(C)OC(=O)CCCCCCCC(CCCCCCCC(=O)OC(CCCCCCCC)CCCCCCCC)NCC1CCOC1 (stereo not drawn) [Compound 36, 1-(decan-2-yl) 17-(heptadecan-9-yl) 9-(((tetrahydrofuran-3-yl)methyl)amino)heptadecanedioate] | – | 6133.5 ng/g tissue |
| – | – | – | 93% | 47 nm | 60 nm | CCCCCCCCC(C)OC(=O)CCCCCCCC(CCCCCCCC(=O)OC(CCCCCCCC)CCCCCCCC)NCC1COC1 (stereo not drawn) [Compound 37, 1-(decan-2-yl) 17-(heptadecan-9-yl) 9-((oxetan-3-ylmethyl)amino)heptadecanedioate] | – | 1225.5 ng/g tissue |
| – | – | – | 97% | 61 nm | 76 nm | CCCCCCCCC(CC)OC(=O)CCCCCCCC(CCCCCCCC(=O)OC(CCCCCCCC)CCCCCCCC)NC1CC2(COC2)C1 (stereo not drawn) [Compound 38, 1-(heptadecan-9-yl) 17-(undecan-3-yl) 9-((2-oxaspiro[3.3]heptan-6-yl)amino)heptadecanedioate] | – | 9730.7 ng/g tissue |
| – | – | – | 97% | 55 nm | 69 nm | CCCCCCCCC(CC)OC(=O)CCCCCCCC(CCCCCCCC(=O)OC(CCCCCCCC)CCCCCCCC)NCC1CCOCC1 (stereo not drawn) [Compound 39, 1-(heptadecan-9-yl) 17-(undecan-3-yl) 9-(((tetrahydro-2H-pyran-4-yl)methyl)amino)heptadecanedioate] | – | 3383.8 ng/g tissue |
| – | – | – | 97% | 53 nm | 70 nm | CCCCCCCCC(CC)OC(=O)CCCCCCCC(CCCCCCCC(=O)OC(CCCCCCCC)CCCCCCCC)NCC1CCOC1 (stereo not drawn) [Compound 40, 1-(heptadecan-9-yl) 17-(undecan-3-yl) 9-(((tetrahydrofuran-3-yl)methyl)amino)heptadecanedioate] | – | 3658.4 ng/g tissue |
| – | – | – | 98% | 54 nm | 69 nm | CCCCCCCCC(CC)OC(=O)CCCCCCCC(CCCCCCCC(=O)OC(CCCCCCCC)CCCCCCCC)NCC1COC1 (stereo not drawn) [Compound 41, 1-(heptadecan-9-yl) 17-(undecan-3-yl) 9-((oxetan-3-ylmethyl)amino)heptadecanedioate] | – | 7390.2 ng/g tissue |
